Test results: patent US11931329B2, “Compositions and methods for treating anxiety-related disorders” (Yamo Pharmaceuticals LLC, priority 2019, dated 2024)

What was measured:
Type in all cases: in vivo, human
[1] = tested on: ASD patient with obsessive thoughts and compulsive behaviors; assay: Case study demonstrating reduction of obsessions and compulsions (SUBJECT); settings: L1-79 100-200 mg three times per day
From the text: An ASD patient (SUBJECT) has a history of obsessive thoughts and compulsive behaviors that negatively impact their functioning. […]

[2] = tested on: patients diagnosed with Autistic Spectrum Disorder and one or more of Social Anxiety Disorder and Generalized Anxiety Disorder; assay: Double blinded, placebo controlled dose ranging study of L1-79 in autism: social anxiety symptoms (case studies); settings: for SRS/DSM-5 Social Communication scale range after treatment: after 4 weeks on L1-79
Description: (§1) Study Title: A Double Blinded, Randomized, Placebo Controlled, Dose Ranging Study for the use of L1-79 in the Treatment of Autism
(§2) Study Design: Blinded, randomized, 4-arm, 4-week treatment period. Treatment arms consist of α-methyl-DL-tyrosine (i.e., L1-79) in doses of 100 mg, or 200 mg, or placebo tid.
(§3) Sample Size:N=30; randomized and 10 open label to 4 groups:
(§4) Study Population: Male subjects between the ages of 13 and 21 years of age, diagnosed with autism who that meet the entry criteria and who are able to complete standardized measures allowing them to participate in this study.
(§5) Major Inclusion Criteria: Males between 13 and 21 years of age, signed informed consent, normal clinical laboratory values, DSM-5 compliant diagnosis of autism spectrum disorder, confirmed by the Autistic Diagnosis Interview Review (ADIR), and by the Autism Diagnosis Observation Schedule (ADOS) score consistent with a diagnosis of autism. No more than one concomitant medication, stable concomitant medications for at least 2 weeks prior to enrollment and no planned changes in psychosocial interventions during the trial.
(§6) Major Exclusion Criteria: Any co-morbidities, including Fragile-X syndrome, epilepsy, Retts syndrome, ADHD, or other disease or syndrome aside from autism that requires treatment. Any other psychiatric disorder, or out of range lab values. DSM-5 diagnosis of schizophrenia, schizoaffective disorder, alcohol use disorder; active medical problems: unstable seizures (>2 in past month), significant physical illness;
(§7) Experimental Treatment: L1-79 at doses of 100 or 200 mg three times daily for 4 weeks.
(§8) Dosage and Administration: L1-79 or placebo, as randomized, were administered orally according to the regimen above.
(§9) Evaluation Schedule: Subjects were evaluated within one week prior to study accession, and weekly throughout the dosing period, and again 4 weeks after the cessation of treatment.
(§10) Study Endpoints: The primary end point was an assessment of the safety of L1-79 based upon reported adverse events and changes in baseline in physical examination parameters that included orthostatic blood pressure, clinical laboratory measures, and ECGs. Secondary endpoints will include the attending physicians assessment as quantified by the Clinical Global Impressions scale based upon changes from baseline in various psychometric tests, including the Vineland Adaptive Behavior Scale 2nd edition (VABS II, VABS) questionnaire, the Autism Diagnostic Observation Schedule (ADOS), the Aberrant Behavior Checklist-Community (ABC-C), the Spencer Anxiety Scale (SAS), the Repetitive Behavior Score-Revised (RBS-R), the Social Responsiveness Scale (SRS), as well as from their personal observations in the clinic, and from videographic information taken during ADOS testing (per this protocol) and anecdotally as provided by caregivers over the course of this study.
Social anxiety symptoms included one or more of fear associated with meeting and talking to people, avoidance of social situations that would elicit significant anxiety in the past, anxiety in anticipation of a social situation, and an inability to initiate conversation with others. The presence of the social anxiety symptoms was recorded at baseline using the Aberrant Behavior Checklist-Community, the Spence Children's Anxiety Scale, the Social Responsiveness Scale, and/or the Clinical Global Impression Scale and direct parent report.
All of the patients were receiving L1-79 100-200 mg three times a day. None of the patients in the Social Anxiety symptom improvement group were receiving medication for Social Anxiety Disorder

[3] = tested on: patients diagnosed with Autistic Spectrum Disorder and one or more of Obsessive Compulsive Disorder and Attention Deficit/Hyperactivity Disorder; assay: Double blinded, placebo controlled dose ranging study of L1-79 in autism: obsessive-compulsive symptoms (case studies)
Description: as §1, §2, §3, §4, §5, §6, §7, §8, §9, §10
Obsessive-compulsive symptoms can include ritualistic and repetitive/restricted behaviors, and obsessive thinking make it difficult for the patient to complete a task or concentrate in a conversation.
All of the patients were receiving L1-79 100-200 mg three times a day. None of the patients in the OCD symptom improvement group were receiving medication for Obsessive Compulsive Disorder
Obsessive-compulsive symptoms were initially recorded at baseline, and at end of active treatment using the Repetitive Behavior Scale, the Spence Children's’ Anxiety Scale, the Social Responsiveness Scale, the Clinical Global Impression Scale and direct parent report.

CC(N)(Cc1ccc(O)cc1)C(=O)O (racemic) [L1-79, α-methyl-DL-tyrosine]
compulsive behaviors/routines [1]: could be delayed or skipped | obsessive thoughts [1]: significant decrease in obsessive thoughts | rigid and inflexible thinking [1]: decrease in rigid and inflexible thinking | social-anxiety symptoms ([2]; ASD patients with SAD and/or GAD, L1-79 100-200 mg three times a day): reductions in social-anxiety symptoms | ABC-C Social Withdrawal after treatment ([2]; Subject 02-002, baseline 98%, L1-79 100-200 mg tid): 75% | SRS/DSM-5 Social Communication scale range after treatment ([2]; Subject 02-002, baseline Severe): Moderate | CGI-I, Social Interaction and Communication ([2]; Subject 02-002, week 4): Much Improved | ABC-C Social Withdrawal after treatment ([2]; Subject 02-007, baseline 75%, week 4 of treatment): < 40% | ABC-C Social Withdrawal after treatment ([2]; Subject 02-009, baseline 91%, week 4 of treatment with L1-79): 63% | ABC-C Social Withdrawal after treatment ([2]; Subject 02-012, baseline 84%, L1-79 100-200 mg tid): < 40% | CGI-Severity Score after treatment ([2]; Subject 02-012, baseline Moderately Ill): Borderline Ill | SRS/DSM-5 Social Communication scale range after treatment ([2]; Subject 02-012, baseline Severe): Within Normal Limits | CGI-I, Social Interaction and Communication ([2]; Subject 02-012, week 4): Much Improved | CGI-I, Social Interactions and Communication area ([2]; Subject 02-014, L1-79 100-200 mg tid): Much Improved | CGI-Severity score, Social Interaction area, after treatment ([2]; Subject 02-014, baseline Markedly Ill): Moderately Ill | SRS/DSM-5 Social Communication scale range after treatment ([2]; Subject 02-016, baseline Mildly Deficient): Within Normal Limits | CGI-Severity Score, Social Interaction and Communication, after treatment ([2]; Subject 02-016, baseline Mildly Ill): Normal | CGI-I, Social Interaction and Communication ([2]; Subject 02-016, week 4): Much Improved | CGI-I, Social Interaction and Communication ([2]; Subject 02-022, week 4 of treatment with L1-79): Much Improved | obsessive-compulsive symptoms ([3]; ASD patients with OCD and/or ADHD, L1-79 100-200 mg three times a day): reductions in obsessive-compulsive symptoms | SRS/DSM-5 Repetitive Behavior and Restrictive Interests score after treatment ([3]; Subject 02-002, baseline 96 (Severe), after treatment Moderate, L1-79 100-200 mg tid): 73 | SRS/DSM-5 Repetitive Behavior and Restrictive Interests range after treatment ([3]; Subject 02-003, baseline Severe, week 4, L1-79 100-200 mg tid): Moderate | CGI-I, Stereotypic and Restricted Interests section ([3]; Subject 02-004, L1-79 100-200 mg tid): Much Improved | Spence Children's Anxiety Scale OCD score after treatment ([3]; Subject 02-007, baseline 3.0 (anxiety disordered children), 0 = normal/no OCD, L1-79 100-200 mg tid): 0 | SRS/DSM-5 subscale Repetitive Behaviors and Restricted Interests range after treatment ([3]; Subject 02-007, baseline Moderate, L1-79 100-200 mg tid): Within Normal Limits | CGI-I score (OCD symptoms) ([3]; Subject 02-012, L1-79 100-200 mg tid): Much Improved | SRS/DSM-5 Repetitive Behavior and Restrictive Interests score after treatment ([3]; Subject 02-012, baseline 80 (Severe), after treatment Within Normal Limits, L1-79 100-200 mg tid): 46 | SRS/DSM-5 Repetitive Behavior and Restrictive Interests score after treatment ([3]; Subject 02-16, baseline 65 (Mild), after treatment Within Normal Limits, L1-79 100-200 mg tid): 46 | CGI-Severity scale, Stereotyped Behaviors and Restricted Interests, after treatment ([3]; Subject 02-16, baseline Mildly Ill, L1-79 100-200 mg tid): Normal | SRS/DSM-5 Repetitive Behavior and Restrictive Interests score after treatment ([3]; Subject 02-020, baseline 85 (Severe), after treatment Moderate, L1-79 100-200 mg tid): 73 | obsessive interest / preoccupation in conversation ([3]; one patient who could talk only about their obsessive interest at baseline, after 4 weeks on active drug): able to have conversations about things of interest to others | self-injurious compulsive behaviors ([3]; one patient with self-injurious compulsive behaviors at baseline, after 3 weeks on active drug): completely stopped self-injury | anxiety-related symptoms ([3]; patients with OCD or SAD in the L1-79 autism study, 100 or 200 mg tid, 4 weeks, oral): improved anxiety-related symptoms
